Data published in patent US12233060B2, “Inhibitors of Ataxia-Telangiectasia Mutated and Rad3-related protein kinase (ATR) for use in methods of treating cancer” (THE INSTITUTE OF CANCER RESEARCH: ROYAL CANCER HOSPITAL, priority 2016, dated 2025).

Key:
[1] = test system: HCT116 ARID1A isogenic (+/+ and −/−) cell lines; assay: Clonogenic survival of ARID1A isogenic cells; format: cell-based, human
Protocol: (§1) FIG. 2. In vitro ARID1A/ATR synthetic lethality. A. Chemical structure of VX-970. B. Western blot of ARID1A in human ARID1A isogenic HCT116 cells. C. Image of colonies in 6 well-plate clonogenic assay. HCT116 ARID1A isogenic (^+/+ and ^−/−) cell lines were exposed to increasing concentrations of the VE-821 (0, 0.1, 1 uM) and VX-970 (0, 0.01, 0.05 uM) for 14 days. D and E. Dose response clonogenic survival curve of HCT116 ARID1A isogenic (^+/+ and ^−/−) cell lines exposed to increasing concentrations of the VE-821 and VX-970 for 14 days. Error bars represent SD from triplicate experiments, ANOVA p-value of <0.0001. F. Area under curve (AUC) box whisker comparison plot for human tumor cell lines exposed to VX-970 for five days. ARID1A wild type tumor cell lines (n=15) were compared to ARID1A mutant cell lines (n=9). Student's t-test p=0.00594. G. Dose response clonogenic survival curve of mouse Arid1a isogenic ES cell lines. Experiment was performed as per (C). Error bars represent SD from triplicate experiments, ANOVA p value of <0.0001. H. Western blot of Arid1a protein expression in mouse ES Arid1a isogenic cells. I. Z score box whisker comparison plot for 86 human tumor cell lines transfected with ATR siRNA. Cells lines were transfected with siRNA and cell viability was estimated five days later by Cell Titre Glo reagent.
Short-term survival assays were performed in 384-well plates. Exponentially growing cells were plated at a concentration of 500 cells/well. Drug was added 24 h after seeding and cells were continuously exposed to the drug for five days, after which cell viability was estimated using CellTitre-Glo luminescence (Promega). For clonogenic assays, cells were seeded in 6-well plates (500 cells/well) and continuously exposed to drug 24!h after seeding for 14 days. Media containing fresh drug was replaced every 72 hours. Cells were fixed with 10% trichloroacetic acid and stained with sulphorhodamine B (Sigma-Aldrich, Gillingham, UK). Colonies were counted manually. All cell-based assays were performed at least in triplicate.

[2] = test system: HCC1143 cells; assay: 384 well plate cell survival after ARID1A siRNA transfection; format: cell-based, human; settings: ARID1A siRNA vs control, five continuous days exposure
Source text: FIG. 1. […] A. Structure of VE-821 and schematic describing workflow for parallel VE-821 chemosensitisation screens in MCF12A and HCC1143 cells. B. Scatter plots of VE-821 Drug Effect (DE) Z-scores from all 1280 siRNAs used in the in the chemosensitisation screens. The DE Z-score threshold of −2 (red line) was used for defining candidate synthetic lethal interactions is shown. C. Venn diagram of DE<−2 VE-821 sensitisation hits in MCF12A and HCC1143 cells. Numbers shown indicate number of sensitisation genes. Amongst the 30 genes with DE Z-scores <−2 in both cell lines, seven well-established tumour suppressor genes were identified. D. Bar charts illustrating DE Z-scores for control, non-targeting, siRNAs (siALLSTAR, siCON1, siCON2) and ARID1A siRNAs in the chemosensitisation screens. Values shown are median from triplicate screens and error bars represent SD. […]
A siRNA library was purchased from Dharmacon. […] RNAi screening conditions were optimised and raw CellTitre-Glo (Promega) luminescent viability readings were generated as previously described21. […]
(§2) Short-term survival assays were performed in 384-well plates. […] Drug was added 24 h after seeding and cells were continuously exposed to the drug for five days, after which cell viability was estimated using CellTitre-Glo luminescence (Promega). […] Colonies were counted manually. […]

[3] = test system: Arid1a+/+ and Arid1a−/− mouse embryonic stem (ES) cells; assay: Clonogenic survival of mouse Arid1a isogenic ES cells; format: cell-based; settings: p<0.001 ANOVA
Protocol: as §1, with “I. Z score box whisker comparison plot for 86 human tumor cell lines transfected with ATR siRNA. Cells lines were transfected with siRNA and cell viability was estimated five days later by Cell Titre Glo reagent.” left out
as §2

[4] = biological target: ATR (Homo sapiens, UniProt Q13535); settings: ATR catalytic inhibitor; reference 15; cited from earlier work
Chain of ATR (Q13535 whole entry): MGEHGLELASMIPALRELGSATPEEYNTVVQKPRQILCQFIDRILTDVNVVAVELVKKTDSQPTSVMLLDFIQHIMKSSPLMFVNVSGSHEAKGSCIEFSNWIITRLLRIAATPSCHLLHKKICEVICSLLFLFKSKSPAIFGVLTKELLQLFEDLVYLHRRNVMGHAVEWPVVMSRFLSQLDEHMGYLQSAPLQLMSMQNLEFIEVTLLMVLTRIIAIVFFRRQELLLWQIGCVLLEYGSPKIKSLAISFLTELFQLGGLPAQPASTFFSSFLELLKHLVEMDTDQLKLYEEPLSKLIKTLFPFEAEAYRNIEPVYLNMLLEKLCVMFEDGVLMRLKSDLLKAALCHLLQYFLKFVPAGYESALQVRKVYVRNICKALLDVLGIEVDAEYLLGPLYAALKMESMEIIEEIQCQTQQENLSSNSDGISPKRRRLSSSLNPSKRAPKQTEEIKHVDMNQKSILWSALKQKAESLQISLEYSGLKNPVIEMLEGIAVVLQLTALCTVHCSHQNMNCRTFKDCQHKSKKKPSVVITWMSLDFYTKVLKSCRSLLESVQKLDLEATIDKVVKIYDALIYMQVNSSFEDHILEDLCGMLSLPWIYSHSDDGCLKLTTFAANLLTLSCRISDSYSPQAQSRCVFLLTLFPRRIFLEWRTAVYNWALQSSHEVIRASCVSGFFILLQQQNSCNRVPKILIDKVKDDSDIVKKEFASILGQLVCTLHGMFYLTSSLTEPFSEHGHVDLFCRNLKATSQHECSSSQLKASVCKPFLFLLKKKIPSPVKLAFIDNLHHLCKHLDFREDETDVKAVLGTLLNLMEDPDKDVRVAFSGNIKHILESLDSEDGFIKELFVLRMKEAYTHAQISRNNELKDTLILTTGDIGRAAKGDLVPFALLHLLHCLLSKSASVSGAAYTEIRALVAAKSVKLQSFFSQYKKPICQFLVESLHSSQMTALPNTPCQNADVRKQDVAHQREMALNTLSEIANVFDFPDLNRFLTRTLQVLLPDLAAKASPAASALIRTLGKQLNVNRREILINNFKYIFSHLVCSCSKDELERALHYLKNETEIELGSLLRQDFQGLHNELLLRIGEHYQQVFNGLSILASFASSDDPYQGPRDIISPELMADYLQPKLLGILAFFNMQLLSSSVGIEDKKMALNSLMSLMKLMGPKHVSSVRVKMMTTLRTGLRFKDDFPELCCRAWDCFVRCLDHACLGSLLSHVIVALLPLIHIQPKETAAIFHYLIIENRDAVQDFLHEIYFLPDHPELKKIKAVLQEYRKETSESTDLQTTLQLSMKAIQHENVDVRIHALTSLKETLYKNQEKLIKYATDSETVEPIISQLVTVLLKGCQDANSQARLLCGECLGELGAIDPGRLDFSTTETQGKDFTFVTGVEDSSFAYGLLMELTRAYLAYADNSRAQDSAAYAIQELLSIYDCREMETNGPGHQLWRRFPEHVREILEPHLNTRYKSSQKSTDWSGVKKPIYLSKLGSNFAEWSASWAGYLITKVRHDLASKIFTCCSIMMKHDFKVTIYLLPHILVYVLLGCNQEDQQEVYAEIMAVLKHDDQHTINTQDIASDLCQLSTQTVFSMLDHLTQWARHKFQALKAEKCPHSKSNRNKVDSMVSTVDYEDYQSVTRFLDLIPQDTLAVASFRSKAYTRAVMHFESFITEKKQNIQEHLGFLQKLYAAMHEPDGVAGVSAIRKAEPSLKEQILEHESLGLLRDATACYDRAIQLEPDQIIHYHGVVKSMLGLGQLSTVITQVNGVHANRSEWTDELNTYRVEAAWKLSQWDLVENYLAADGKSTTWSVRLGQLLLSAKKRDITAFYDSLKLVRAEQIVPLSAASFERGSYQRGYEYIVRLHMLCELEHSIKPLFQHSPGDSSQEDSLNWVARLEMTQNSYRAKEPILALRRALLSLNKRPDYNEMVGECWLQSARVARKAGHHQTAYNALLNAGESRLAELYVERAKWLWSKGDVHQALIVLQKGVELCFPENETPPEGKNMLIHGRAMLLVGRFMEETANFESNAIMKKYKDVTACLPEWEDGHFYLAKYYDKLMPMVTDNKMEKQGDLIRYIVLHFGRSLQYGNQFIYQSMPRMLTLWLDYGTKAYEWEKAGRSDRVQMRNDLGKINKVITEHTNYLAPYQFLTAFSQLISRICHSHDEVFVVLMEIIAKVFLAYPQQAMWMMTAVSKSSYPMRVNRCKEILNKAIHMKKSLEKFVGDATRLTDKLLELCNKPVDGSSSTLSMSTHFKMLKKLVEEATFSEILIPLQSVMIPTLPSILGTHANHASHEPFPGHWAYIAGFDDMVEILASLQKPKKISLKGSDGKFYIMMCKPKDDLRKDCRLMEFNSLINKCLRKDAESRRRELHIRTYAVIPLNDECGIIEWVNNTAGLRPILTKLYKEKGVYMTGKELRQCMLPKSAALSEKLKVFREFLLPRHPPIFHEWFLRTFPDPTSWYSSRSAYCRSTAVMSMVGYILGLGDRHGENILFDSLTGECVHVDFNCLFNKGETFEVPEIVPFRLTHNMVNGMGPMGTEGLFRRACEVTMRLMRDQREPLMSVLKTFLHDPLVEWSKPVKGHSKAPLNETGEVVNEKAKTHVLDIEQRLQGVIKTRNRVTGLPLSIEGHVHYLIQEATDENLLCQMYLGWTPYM
Chain of ATR (Q8WXE1 whole entry partner): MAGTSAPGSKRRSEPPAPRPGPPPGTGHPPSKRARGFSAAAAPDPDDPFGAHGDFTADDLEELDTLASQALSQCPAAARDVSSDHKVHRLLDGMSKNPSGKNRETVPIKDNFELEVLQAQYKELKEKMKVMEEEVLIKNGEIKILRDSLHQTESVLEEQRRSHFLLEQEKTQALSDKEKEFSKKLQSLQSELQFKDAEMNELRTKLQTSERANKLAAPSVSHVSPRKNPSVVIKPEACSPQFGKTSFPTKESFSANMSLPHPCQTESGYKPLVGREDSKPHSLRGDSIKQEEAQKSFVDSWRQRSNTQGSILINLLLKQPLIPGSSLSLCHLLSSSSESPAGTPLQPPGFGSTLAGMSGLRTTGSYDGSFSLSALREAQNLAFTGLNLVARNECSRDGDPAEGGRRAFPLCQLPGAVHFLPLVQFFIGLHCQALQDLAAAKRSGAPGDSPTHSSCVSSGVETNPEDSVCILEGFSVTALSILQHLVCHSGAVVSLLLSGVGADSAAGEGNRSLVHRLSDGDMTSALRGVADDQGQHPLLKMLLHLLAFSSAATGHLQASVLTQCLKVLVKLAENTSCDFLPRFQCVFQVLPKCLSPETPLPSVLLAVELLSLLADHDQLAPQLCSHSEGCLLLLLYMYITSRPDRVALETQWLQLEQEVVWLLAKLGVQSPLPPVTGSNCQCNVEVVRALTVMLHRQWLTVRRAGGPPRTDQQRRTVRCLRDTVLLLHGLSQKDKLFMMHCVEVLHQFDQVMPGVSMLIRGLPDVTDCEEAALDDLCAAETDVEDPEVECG

[5] = test system: TOV21G (ARID1A mutant) and RMG1 (ARID1A wildtype) cells; assay: Five-day dose response in OCCC cell lines TOV21G and RMG1; format: cell-based, human; settings: 5 days exposure
Protocol: FIG. 3. In vivo ARID1A/ATR synthetic lethality. A. Schematic of VX-970 therapy experiment in mice bearing established HCT116 ARID1A^+/+ and ARID1A^−/− xenografts. Cells were inoculated subcutaneously into nude mice and tumors allowed to establish for 10 days. Mice were then randomized to treatment regimens of either VX-970 (60 mg/kg, 4× weekly by oral gavage) or vehicle. Mice were then treated for a subsequent 40 days. Tumor volume was monitored twice weekly. B. Relative tumor volume plot from (A) showing efficacy of VX-970 and selectivity for ARID1A^−/− xenografts* p=0.024, ANOVA. C. Schematic of tumor incidence experiment in mice with non-established HCT116 ARID1A^+/+ and ARID1A^−/− xenografts. Mice were inoculated with cells as before, randomized and then treated with VX-970. […] Tumor volume was monitored twice weekly and overall tumour incidence was assessed 40 days later. […] PARP-1, cleaved PARP-1 (85 kDa fragment) and tubulin were detected by western blot. […] Caspase3/7 activity was assessed using Caspase-Glo and total cellular viability was estimated using CellTitre-Glo. Luminescence ratios for Caspase-Glo (i.e. apoptotic cells) and CellTitre-Glo (ie viable cells) was determined for each dose and normalized to DMSO treated samples. *Student's t-test, p<0.05. […]
Short-term survival assays were performed in 384-well plates. […] Colonies were counted manually. […]

Compound | ARID1A−/− selectivity [1] | ATRi sensitivity caused by ARID1A siRNA [2] | selective targeting of Arid1a−/− ES cells in clonogenic assays [3] | Ki [4] [nM] | sensitivity of TOV21G vs RMG1 [5]
CC(=O)O[C@H]1C(=O)[C@@]2(C)[C@H]([C@H](OC(=O)c3ccccc3)[C@]3(O)C[C@H](OC(=O)[C@H](O)[C@@H](NC(=O)c4ccccc4)c4ccccc4)C(C)=C1C3(C)C)[C@]1(OC(C)=O)CO[C@@H]1C[C@@H]2O [taxol] | neither taxol or methotrexate elicited ARID1A^−/− selectivity |  |  |  | 
CN(Cc1cnc2nc(N)nc(N)c2n1)c1ccc(C(=O)N[C@@H](CCC(=O)O)C(=O)O)cc1 [methotrexate] | neither taxol or methotrexate elicited ARID1A^−/− selectivity |  |  |  | 
CS(=O)(=O)c1ccc(-c2cnc(N)c(C(=O)Nc3ccccc3)n2)cc1 [VE-821, 3-amino-6-(4-methylsulfonylphenyl)-N-phenyl-pyrazine-2-carboxamide] |  | significantly enhanced sensitivity to VE-821 | selectively targeted Arid1a^−/− ES cells | 13 | more sensitive to both VE-821 and VX-970
